Data reported in patent publication US8710085B2, “Pyrrolidine-1,2-dicarboxamide derivatives” (Novartis AG, priority 2008, dated 2014).
Read-outs that look alike come from different tables or passages of the source.

Columns and labels:
Format in all cases: biochemical
PI3Kβ = molecular target: T1, PI3Kβ (Homo sapiens, UniProt P42338); assay: PI3K KinaseGlo assay, PI3Kβ
T1 construct: p110β(2-1070)-His; made in house; host or cells: baculovirus, Tn5 insect cells
Procedure: (§1) PI3K KinaseGlo assay: 50 mL of compound dilutions were dispensed onto black 384-well low volume Non Binding Styrene (NBS) plates (Costar Cat. No. NBS#3676). L-a-phosphatidylinositol (PI), provided as 10 mg/ml solution in methanol, was transferred into a glass tube and dried under nitrogen beam. It was then resuspended in 3% OctylGlucoside (OG) by vortexing and stored at 4° C. The KinaseGlo Luminescent Kinase Assay (Promega, Madison/WI, USA) is a homogeneous HTS method of measuring kinase activity by quantifying the amount of ATP remaining in solution following a kinase reaction.
(§2) 5 μL of a mix of PI/OG with the PI3K subtype were added (Table 1). Kinase reactions were started by addition of 5 μl of ATP-mix containing in a final volume 10 μL 10 mM TRIS-HCl pH 7.5, 3 mM MgCl2, 50 mM NaCl, 0.05% CHAPS, 1 mM DTT and 1 μM ATP, and occurred at room temperature. […] The standard was used as a reference compound and included in all assay plates in the form of 16 dilution points in duplicate.
The PI3Kα, PI3Kβ and PI3Kδ constructs are fusion of p85α iSH2 domain and the respective p110 isoforms. The p85α fragment and p110 isoform genes were generated by PCR from first strand cDNA generated by RT-PCR from commercial RNA from placenta, testis and brain as described below. The PI3Kγ construct was obtained from Roger Williams lab, MRC Laboratory of Molecular Biology, Cambridge, UK (November, 2003) and is described (Pacold, Michael E.; Suire, Sabine; Perisic, Olga; Lara-Gonzalez, Samuel; Davis, Colin T.; Walker, Edward H.; Hawkins, Phillip T.; Stephens, Len; Eccleston, John F.; Williams, Roger L. Crystal structure and functional analysis of Ras binding to its effector phosphoinositide 3-kinase gamma. Cell (2000), 103(6), 931-943).
BV949: PCR products for the inter SH2 domain (iSH2) of the p85 PI3Kα, PI13Kβ and PI3Kδ subunit and for the full-length p110β subunit were generated and fused by overlapping PCR. […] The p11013 fragment was obtained by PCR using as template a p110β clone (from unknown source that was sequence verified) using primers gwG130-p04 (5′-[…]-[…]-3′) (SEQ ID NO: 9) which contains linker sequences and the 5′ end of p110β and gwG130-p06 (5′-[…]-[…]-3′) (SEQ ID NO: 10) which contains sequences of the 3′ end of p110-β fused to a Histidine tag. […] This final product was recombined in a Gateway (Invitrogen) […] into the donor vector pDONR201 (Invitrogen) to generate the ORF253 entry clone. This clone was verified by sequencing and used in a Gateway LR reaction (Invitrogen) to transfer the insert into the Gateway adapted pBlueBac4.5 (Invitrogen) vector for generation of the baculovirus expression vector LR280.
(§3) PI3Kα, PI3Kβ and PI3Kγ were purified in two chromatographic steps: immobilized metal affinity chromatography (IMAC) on a Ni sepharose resin (GE Healthcare) and gel filtration utilizing a Superdex 200 26/60 column (GE Healthcare). All buffers were chilled to 4° C. and lysis was performed chilled on ice. Column fractionation was performed at room temperature. All buffers used to purify PI3Kβ contained 0.05% Triton X100 in addition to what is described below.
The lysate was centrifuged at 45,000 g for 30 minutes, and the supernatant was loaded onto a pre-equilibrated IMAC column (3 mL resin/100 mL lysate). […] Protein was eluted with 20 mM Tris-Cl, pH 7.5, 0.5 M NaCl, 5% glycerol, 250 mM imidazole, 1 mM NaF, 0.1 μg/mL OAA, 5 mM BME, 1× Complete protease inhibitor cocktail—EDTA-free. Pertinent fractions were analyzed by SDS-PAGE and pooled accordingly. The protein was further purified by gel filtration on a Superdex 200 26/60 column equilibrated in 20 mM Tris-Cl, pH 7.5, 0.5 M NaCl, 5% glycerol, 1 mM NaF, 5 mM DTT, 1× Complete protease inhibitor cocktail—EDTA-free. Pertinent fractions were analyzed by SDS-PAGE and pooled accordingly.

PI3Kδ = molecular target: T2, PI3Kδ (Homo sapiens, UniProt O00329); assay: PI3K KinaseGlo assay, PI3Kδ; settings: 10 nM enzyme, 1 μM ATP, 30 mins, room temperature, read-out: PI3Kd/IC50
T2 construct: p85iSH2(461-568)-GGGGGG-p110δ(2-1044)-His; made in house; host or cells: baculovirus, Tn5 insect cells
T2 sequence (O00329 with tags, fused parts or gaps): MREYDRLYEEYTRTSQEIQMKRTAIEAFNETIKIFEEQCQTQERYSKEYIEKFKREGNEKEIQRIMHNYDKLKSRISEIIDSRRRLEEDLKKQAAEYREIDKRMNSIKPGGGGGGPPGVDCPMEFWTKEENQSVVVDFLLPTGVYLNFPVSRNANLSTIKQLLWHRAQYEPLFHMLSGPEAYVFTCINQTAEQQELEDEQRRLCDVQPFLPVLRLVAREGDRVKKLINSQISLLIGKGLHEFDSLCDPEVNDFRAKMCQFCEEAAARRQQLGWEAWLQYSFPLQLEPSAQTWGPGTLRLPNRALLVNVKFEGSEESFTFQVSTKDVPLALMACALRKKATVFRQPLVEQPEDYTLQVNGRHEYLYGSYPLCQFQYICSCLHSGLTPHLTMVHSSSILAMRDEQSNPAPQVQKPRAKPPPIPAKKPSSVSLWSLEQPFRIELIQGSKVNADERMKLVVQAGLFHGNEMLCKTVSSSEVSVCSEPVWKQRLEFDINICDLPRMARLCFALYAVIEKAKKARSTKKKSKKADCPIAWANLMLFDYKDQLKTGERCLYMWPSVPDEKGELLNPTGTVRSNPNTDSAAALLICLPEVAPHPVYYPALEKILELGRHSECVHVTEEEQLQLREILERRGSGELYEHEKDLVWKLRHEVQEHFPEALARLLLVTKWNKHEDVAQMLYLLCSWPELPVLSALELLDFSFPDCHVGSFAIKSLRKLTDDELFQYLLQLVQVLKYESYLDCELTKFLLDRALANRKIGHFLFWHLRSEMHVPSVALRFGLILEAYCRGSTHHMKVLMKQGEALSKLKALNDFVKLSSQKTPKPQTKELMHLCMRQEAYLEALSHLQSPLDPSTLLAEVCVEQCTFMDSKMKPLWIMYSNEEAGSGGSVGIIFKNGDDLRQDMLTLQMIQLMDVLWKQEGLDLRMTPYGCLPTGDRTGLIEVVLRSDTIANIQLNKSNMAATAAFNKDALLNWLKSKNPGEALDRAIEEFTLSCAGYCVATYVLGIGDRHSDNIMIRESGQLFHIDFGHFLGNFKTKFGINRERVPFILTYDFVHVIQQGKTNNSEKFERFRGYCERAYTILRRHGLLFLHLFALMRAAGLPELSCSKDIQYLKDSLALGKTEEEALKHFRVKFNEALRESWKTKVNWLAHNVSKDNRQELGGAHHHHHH

PI3Kγ = molecular target: T3, PI3Kγ (Homo sapiens, UniProt P48736, Q459R); assay: PI3K KinaseGlo assay, PI3Kγ; settings: 150 nM enzyme, 1 μM ATP, 90 mins, room temperature, read-out: PI3Kg/IC50
T3 construct: p110γ(Δ143-[Met144-1102])-His; made in house; host or cells: Tn5 insect cells; construct from Roger Williams lab, MRC LMB
T3 sequence (P48736 with tags, fused parts or gaps Q459R): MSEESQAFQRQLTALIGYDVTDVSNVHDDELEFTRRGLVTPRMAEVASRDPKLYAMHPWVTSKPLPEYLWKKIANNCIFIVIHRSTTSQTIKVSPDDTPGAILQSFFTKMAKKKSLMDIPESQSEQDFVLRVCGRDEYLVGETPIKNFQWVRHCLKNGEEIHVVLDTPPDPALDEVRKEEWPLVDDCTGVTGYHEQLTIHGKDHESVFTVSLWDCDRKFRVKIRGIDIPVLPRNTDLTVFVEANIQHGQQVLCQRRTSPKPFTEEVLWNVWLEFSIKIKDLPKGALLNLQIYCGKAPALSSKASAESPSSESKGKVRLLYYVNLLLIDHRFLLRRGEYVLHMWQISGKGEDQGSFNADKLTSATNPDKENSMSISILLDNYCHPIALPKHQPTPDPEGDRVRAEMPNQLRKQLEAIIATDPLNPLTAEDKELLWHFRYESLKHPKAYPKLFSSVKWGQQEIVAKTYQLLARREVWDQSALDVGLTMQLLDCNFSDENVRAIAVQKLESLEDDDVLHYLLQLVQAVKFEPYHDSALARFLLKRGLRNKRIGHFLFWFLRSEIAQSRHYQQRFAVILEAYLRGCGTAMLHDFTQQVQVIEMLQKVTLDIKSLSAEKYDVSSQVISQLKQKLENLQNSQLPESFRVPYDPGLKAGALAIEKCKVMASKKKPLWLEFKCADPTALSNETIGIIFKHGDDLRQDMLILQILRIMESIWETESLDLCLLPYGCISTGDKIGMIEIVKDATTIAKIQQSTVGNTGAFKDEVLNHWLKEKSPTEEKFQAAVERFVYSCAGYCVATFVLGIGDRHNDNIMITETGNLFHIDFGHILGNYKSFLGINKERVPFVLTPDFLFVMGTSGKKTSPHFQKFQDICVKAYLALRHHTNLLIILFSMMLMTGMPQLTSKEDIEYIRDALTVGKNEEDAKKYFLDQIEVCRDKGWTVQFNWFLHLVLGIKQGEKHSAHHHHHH
Procedure: as §1, with “L-a-phosphatidylinositol” for “PI3K KinaseGlo assay: 50 mL of compound dilutions were dispensed onto black 384-well low volume Non Binding Styrene (NBS) plates (Costar Cat. No. NBS#3676). L-a-phosphatidylinositol”
as §2, with “duplicate. […]” for “duplicate.”
as §3
The lysate was centrifuged at 45,000 g for 30 minutes, and the supernatant was loaded onto a pre-equilibrated IMAC column (3 mL resin/100 mL lysate). […] Protein was eluted with 20 mM Tris-Cl, pH 7.5, 0.5 M NaCl, 5% glycerol, 250 mM imidazole, 1 mM NaF, 0.1 μg/mL OAA, 5 mM BME, 1× Complete protease inhibitor cocktail—EDTA-free. Pertinent fractions were analyzed by SDS-PAGE and pooled accordingly. The protein was further purified by gel filtration on a Superdex 200 26/60 column equilibrated in 20 mM Tris-Cl, pH 7.5, 0.5 M NaCl, 5% glycerol, 1 mM NaF, 5 mM DTT, 1× Complete protease inhibitor cocktail—EDTA-free. Pertinent fractions were analyzed by SDS-PAGE and pooled accordingly. An equal volume of Dialysis Buffer (20 mM Tris-Cl, pH 7.5, 500 mM NaCl, 50% glycerol, 5 mM NaF, 5 mM DTT) was added to the pool and than dialyzed against Dialysis Buffer two changes (one change overnight). Protein was stored at −20° C.

PI3Kα = molecular target: T4, PI3Kα (Homo sapiens, UniProt P42336); assay: PI3K KinaseGlo assay, PI3Kα
T4 construct: p110α(21-1068)-His; made in house; host or cells: baculovirus, Tn5 insect cells
T4 sequence (P42336 with tags, fused parts or gaps): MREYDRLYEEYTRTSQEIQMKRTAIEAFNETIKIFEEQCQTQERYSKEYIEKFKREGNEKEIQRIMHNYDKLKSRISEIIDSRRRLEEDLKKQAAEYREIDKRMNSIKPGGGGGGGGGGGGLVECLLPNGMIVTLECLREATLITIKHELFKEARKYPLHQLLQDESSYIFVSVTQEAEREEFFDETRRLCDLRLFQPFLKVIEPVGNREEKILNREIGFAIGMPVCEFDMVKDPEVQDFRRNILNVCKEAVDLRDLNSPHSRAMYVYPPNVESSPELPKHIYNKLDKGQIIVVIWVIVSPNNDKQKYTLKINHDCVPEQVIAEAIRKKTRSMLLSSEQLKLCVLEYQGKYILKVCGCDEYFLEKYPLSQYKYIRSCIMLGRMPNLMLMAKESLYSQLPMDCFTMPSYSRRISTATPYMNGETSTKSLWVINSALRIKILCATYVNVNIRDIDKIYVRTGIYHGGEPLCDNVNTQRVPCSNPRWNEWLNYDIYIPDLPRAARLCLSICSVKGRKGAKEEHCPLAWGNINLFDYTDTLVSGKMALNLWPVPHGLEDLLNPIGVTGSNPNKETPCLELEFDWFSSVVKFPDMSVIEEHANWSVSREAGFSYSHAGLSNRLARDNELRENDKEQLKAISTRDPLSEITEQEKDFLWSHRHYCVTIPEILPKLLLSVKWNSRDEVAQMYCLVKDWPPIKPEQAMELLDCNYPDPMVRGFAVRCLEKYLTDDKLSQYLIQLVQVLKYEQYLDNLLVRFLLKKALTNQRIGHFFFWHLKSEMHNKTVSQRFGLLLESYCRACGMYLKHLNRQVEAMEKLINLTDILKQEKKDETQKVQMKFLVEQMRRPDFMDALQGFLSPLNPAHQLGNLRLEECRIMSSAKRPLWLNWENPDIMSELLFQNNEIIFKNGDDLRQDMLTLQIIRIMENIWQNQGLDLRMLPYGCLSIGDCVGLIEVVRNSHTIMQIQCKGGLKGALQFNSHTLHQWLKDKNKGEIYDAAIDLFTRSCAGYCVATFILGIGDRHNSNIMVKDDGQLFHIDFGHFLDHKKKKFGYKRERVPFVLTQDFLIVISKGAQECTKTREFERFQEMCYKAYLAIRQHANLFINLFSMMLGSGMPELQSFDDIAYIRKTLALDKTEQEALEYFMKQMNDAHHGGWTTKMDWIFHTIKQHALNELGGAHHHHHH

[1] = KinaseGlo, 25 nM enzyme, 1 μM ATP, 30 mins, room temperature, read-out: PI3Kb/IC50
[2] = KinaseGlo, 10 nM enzyme, 1 μM ATP, 30 mins, room temperature, read-out: PI3Ka/IC50
[3] = KinaseGlo, 10 nM enzyme, 1 μM ATP, 30 mins, room temperature

T1 sequence (P42338 with tags, fused parts or gaps): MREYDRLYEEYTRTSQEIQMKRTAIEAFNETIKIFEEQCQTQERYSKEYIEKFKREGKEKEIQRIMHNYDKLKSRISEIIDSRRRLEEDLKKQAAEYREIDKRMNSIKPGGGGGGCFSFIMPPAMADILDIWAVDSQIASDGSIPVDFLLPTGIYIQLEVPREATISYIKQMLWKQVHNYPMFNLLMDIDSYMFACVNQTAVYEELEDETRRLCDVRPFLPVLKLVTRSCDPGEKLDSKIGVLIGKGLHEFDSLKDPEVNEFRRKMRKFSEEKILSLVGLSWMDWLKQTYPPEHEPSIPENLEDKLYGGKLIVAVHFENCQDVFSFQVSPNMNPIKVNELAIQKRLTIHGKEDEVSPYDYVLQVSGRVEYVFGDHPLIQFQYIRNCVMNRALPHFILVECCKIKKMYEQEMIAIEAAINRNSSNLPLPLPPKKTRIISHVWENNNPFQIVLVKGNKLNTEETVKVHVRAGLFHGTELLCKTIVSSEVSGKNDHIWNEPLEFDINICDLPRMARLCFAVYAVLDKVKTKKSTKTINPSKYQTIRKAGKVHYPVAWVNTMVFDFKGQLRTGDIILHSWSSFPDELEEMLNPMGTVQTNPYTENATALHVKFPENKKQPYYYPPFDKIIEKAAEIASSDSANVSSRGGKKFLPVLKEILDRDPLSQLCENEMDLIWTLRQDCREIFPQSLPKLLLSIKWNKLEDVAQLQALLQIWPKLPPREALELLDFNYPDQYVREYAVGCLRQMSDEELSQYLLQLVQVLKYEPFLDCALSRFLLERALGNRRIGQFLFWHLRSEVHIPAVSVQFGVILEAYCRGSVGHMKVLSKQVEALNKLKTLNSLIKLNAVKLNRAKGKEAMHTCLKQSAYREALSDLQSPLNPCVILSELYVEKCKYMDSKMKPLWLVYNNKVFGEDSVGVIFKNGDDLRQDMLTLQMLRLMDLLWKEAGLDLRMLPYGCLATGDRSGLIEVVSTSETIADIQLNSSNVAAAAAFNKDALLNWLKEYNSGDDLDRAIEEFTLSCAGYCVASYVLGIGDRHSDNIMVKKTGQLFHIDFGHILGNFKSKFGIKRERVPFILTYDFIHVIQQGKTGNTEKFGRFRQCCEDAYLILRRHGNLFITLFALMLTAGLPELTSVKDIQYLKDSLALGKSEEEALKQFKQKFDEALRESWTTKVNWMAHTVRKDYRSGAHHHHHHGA

| SMILES | IC50 (PI3Kβ; [1]) | IC50 (PI3Kδ) | IC50 (PI3Kγ) | IC50 (PI3Kα; [2]) | IC50 (PI3Kα) | PI3Ka/IC50 (PI3Kα; [3]) | IC50 (PI3Kβ) |
| --- | --- | --- | --- | --- | --- | --- | --- |
| Cc1nc(NC(=O)N2CCC[C@H]2C(N)=O)sc1-c1ccnc(C(C)(C)C)c1 [Example 1, (S)-Pyrrolidine-1,2-dicarboxylic acid 2-amide 1-{[5-(2-tert-butyl-pyridin-4-yl)-4-methyl-thiazol-2-yl]-amide}] | 4430 nM | 971 nM | 680 nM | – | – | – | – |
| Cc1nc(NC(=O)N2CCC[C@H]2C(N)=O)sc1-c1ccnc(-c2ccccc2F)c1 [Example 3, (S)-Pyrrolidine-1,2-dicarboxylic acid 2-amide 1-({5-[2-(2-fluoro-phenyl)-pyridin-4-yl]-4-methyl-thiazol-2-yl}-amide)] | 2300 nM | 432 nM | 362 nM | 67 nM | – | – | – |
| CC(C)(c1cc(-c2cnc(NC(=O)N3CCC[C@H]3C(N)=O)s2)ccn1)C(F)(F)F [Example 12, (S)-Pyrrolidine-1,2-dicarboxylic acid 2-amide 1-({5-[2-(2,2,2-trifluoro-1,1-dimethyl-ethyl)-pyridin-4-yl]-thiazol-2-yl}-amide)] | 3870 nM | 197 nM | 352 nM | – | 10 nM | – | – |
| Cc1nc(NC(=O)N2CCC[C@H]2C(N)=O)sc1-c1ccnc(C2(C)CC2)n1 [Example 42, (S)-Pyrrolidine-1,2-dicarboxylic acid 2-amide 1-({4-methyl-5-[2-(1-methylcyclopropyl)-pyrimidin-4-yl]-thiazol-2-yl}-amide)] | – | 289 nM | 858 nM | – | – | – | 3170 nM |
| Cc1nc(NC(=O)N2CCC[C@H]2C(N)=O)sc1-c1ccnc(Cc2c(Cl)cccc2Cl)n1 [Example 47, (S)-Pyrrolidine-1,2-dicarboxylic acid 2-amide 1-({5-[2-(2,6-dichloro-benzyl)pyrimidin-4-yl]-4-methyl-thiazol-2-yl}-amide)] | 2900 nM | 156 nM | 1870 nM | 94 nM | – | – | – |
| Cc1nc(NC(=O)N2CCC[C@H]2C(N)=O)sc1-c1ccnc(-c2ccccc2F)n1 [Example 51, (S)-Pyrrolidine-1,2-dicarboxylic acid 2-amide 1-({5-[2-(2-fluoro-phenyl)pyrimidin-4-yl]-4-methyl-thiazol-2-yl}-amide)] | 8840 nM | 690 nM | 3480 nM | 113 nM | – | – | – |
| Cc1nc(NC(=O)N2CCC[C@H]2C(N)=O)sc1-c1ccnc(C2CC2)n1 [Example 59, (S)-Pyrrolidine-1,2-dicarboxylic acid 2-amide 1-({4-methyl-5-[2-cyclopropyl-pyrimidin-4-yl]thiazol-2-yl-}-amide)] | 3500 nM | 881 nM | 917 nM | 64 nM | – | – | – |
| CCN(CC)c1nccc(-c2sc(NC(=O)N3CCC[C@H]3C(N)=O)nc2C)n1 [Example 63, (S)-Pyrrolidine-1,2-dicarboxylic acid 2-amide 1-{[5-(2-diethylamino-pyrimidin-4-yl)-4-methyl-thiazol-2-yl]-amide}] | 1200 nM | 98 nM | 790 nM | – | – | 0.016 umol I-1 | – |

Continued by falling IC50 (PI3Kβ; [1]), values first:

| IC50 (PI3Kβ; [1]) | IC50 (PI3Kδ) | IC50 (PI3Kγ) | IC50 (PI3Kα; [2]) | IC50 (PI3Kα) | PI3Ka/IC50 (PI3Kα; [3]) | SMILES | IC50 (PI3Kβ) |
| --- | --- | --- | --- | --- | --- | --- | --- |
| 6170 nM | 804 nM | 684 nM | 56 nM | – | – | COc1ccc(C2(c3cc(-c4sc(NC(=O)N5CCC[C@H]5C(N)=O)nc4C)ccn3)CC2)cc1 [Example 29, (S)-Pyrrolidine-1,2-dicarboxylic acid 2-amide 1-[(5-{2-[1-(4-methoxy-phenyl)-cyclopropyl]-pyridin-4-yl}-4-methyl-thiazol-2-yl)-amide]] | – |
| 5520 nM | 386 nM | 4450 nM | – | – | 0.039 umol I-1 | CC(C)(c1cc(-c2sc(NC(=O)N3CCC[C@H]3C(N)=O)nc2Cl)ccn1)C(F)(F)F [Example 37, (S)-Pyrrolidine-1,2-dicarboxylic acid 2-amide 1-({4-chloro-5-[2-(2,2,2-trifluoro-1,1-dimethyl-ethyl)-pyridin-4-yl]-thiazol-2-yl}-amide)] | – |
| 5200 nM | 271 nM | 1560 nM | 81 nM | – | – | COc1ccc(C(C)(C)c2cc(-c3sc(NC(=O)N4CCC[C@H]4C(N)=O)nc3C)ccn2)cc1 [Example 27, (S)-Pyrrolidine-1,2-dicarboxylic acid 2-amide 1-[(5-{2-[1-(4-methoxy-phenyl)-1-methyl-ethyl]-pyridin-4-yl}-4-methyl-thiazol-2-yl)-amide]] | – |
| 4490 nM | 161 nM | 183 nM | – | – | – | NC(=O)[C@@H]1CCCN1C(=O)Nc1ncc(-c2ccnc(C3(C(F)(F)F)CCC3)c2)s1 [Example 13, (S)-Pyrrolidine-1,2-dicarboxylic acid 2-amide 1-({5-[2-(1-trifluoromethyl-cyclobutyl)-pyridin-4-yl]-thiazol-2-yl}-amide)] | – |
| 4140 nM | 538 nM | 612 nM | – | – | 0.019 umol I-1 | Cc1nc(NC(=O)N2CCC[C@H]2C(N)=O)sc1-c1ccnc(C2(C#N)CC2)c1 [Example 18, (S)-Pyrrolidine-1,2-dicarboxylic acid 2-amide 1-({5-[2-(1-cyano-cyclopropyl)pyridin-4-yl]-4-methyl-thiazol-2-yl}-amide)] | – |
